# According to publication PMC9832378 (Drug Metabolism and Disposition, 2023):
# Where two headings read alike, the source gives them in different places.
# What was measured:
# [1] = system: COX formation in pooled HLMs; conditions: 500 μM COT, vs control without inhibitor
# [2] = urine of Caucasian smokers; ref Rangiah et al., 2011; cited from earlier work
# [3] = target: CYP2C19 (Homo sapiens, UniProt P33261); conditions: UM2C19/EM2C19 genotype groups compared with PM2C19 genotype group; ref Li-Wan-Po et al., 2010; cited from earlier work
# Sequence of CYP2C19 (P33261 whole entry): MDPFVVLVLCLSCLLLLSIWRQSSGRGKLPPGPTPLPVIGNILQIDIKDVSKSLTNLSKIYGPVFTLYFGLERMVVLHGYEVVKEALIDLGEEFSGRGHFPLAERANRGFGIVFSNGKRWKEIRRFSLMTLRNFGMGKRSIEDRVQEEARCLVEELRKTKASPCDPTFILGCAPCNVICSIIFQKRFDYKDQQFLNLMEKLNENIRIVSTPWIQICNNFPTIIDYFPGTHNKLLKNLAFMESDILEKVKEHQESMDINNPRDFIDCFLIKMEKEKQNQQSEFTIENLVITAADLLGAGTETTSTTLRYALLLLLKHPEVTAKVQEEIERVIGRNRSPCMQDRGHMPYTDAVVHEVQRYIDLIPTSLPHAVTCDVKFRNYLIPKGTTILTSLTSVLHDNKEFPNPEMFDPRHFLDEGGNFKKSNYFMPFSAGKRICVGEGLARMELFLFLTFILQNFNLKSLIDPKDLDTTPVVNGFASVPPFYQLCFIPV
# [4] = target: CYP3A4 (Homo sapiens, UniProt P08684); type: in vitro ADME; conditions: microsomes of HEK293 cells overexpressing CYP3A4
# Sequence of CYP3A4 (P08684 whole entry): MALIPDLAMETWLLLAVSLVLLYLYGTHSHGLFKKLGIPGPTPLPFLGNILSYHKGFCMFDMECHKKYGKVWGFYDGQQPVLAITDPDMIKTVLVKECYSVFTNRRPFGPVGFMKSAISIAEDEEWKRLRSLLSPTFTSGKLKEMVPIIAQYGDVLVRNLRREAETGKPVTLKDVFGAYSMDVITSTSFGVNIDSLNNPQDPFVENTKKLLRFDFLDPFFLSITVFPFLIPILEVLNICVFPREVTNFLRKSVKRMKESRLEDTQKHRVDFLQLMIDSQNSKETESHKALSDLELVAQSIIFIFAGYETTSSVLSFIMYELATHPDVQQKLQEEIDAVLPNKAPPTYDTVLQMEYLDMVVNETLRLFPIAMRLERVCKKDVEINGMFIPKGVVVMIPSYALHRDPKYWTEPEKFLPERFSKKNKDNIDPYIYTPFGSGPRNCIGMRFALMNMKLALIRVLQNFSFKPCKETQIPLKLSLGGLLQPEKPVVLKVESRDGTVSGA
# [5] = target: T1, CYP2B6 (Homo sapiens, UniProt P20813); type: in vitro ADME; conditions: microsomes of HEK293 cells overexpressing CYP2B6
# T1 sequence (P20813 1-491): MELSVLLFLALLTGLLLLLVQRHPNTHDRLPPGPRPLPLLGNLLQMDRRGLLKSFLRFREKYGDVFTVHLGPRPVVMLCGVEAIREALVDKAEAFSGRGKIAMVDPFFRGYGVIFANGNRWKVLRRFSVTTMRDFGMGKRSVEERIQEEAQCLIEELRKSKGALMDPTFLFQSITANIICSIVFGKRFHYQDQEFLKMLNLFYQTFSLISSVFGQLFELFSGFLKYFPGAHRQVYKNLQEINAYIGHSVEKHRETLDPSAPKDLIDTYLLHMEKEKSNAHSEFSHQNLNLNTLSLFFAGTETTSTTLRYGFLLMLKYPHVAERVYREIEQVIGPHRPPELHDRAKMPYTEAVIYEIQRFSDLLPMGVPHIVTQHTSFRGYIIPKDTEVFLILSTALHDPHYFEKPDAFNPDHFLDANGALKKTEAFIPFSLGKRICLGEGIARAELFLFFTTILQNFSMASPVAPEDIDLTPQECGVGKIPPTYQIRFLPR
# [6] = target: CYP2E1 (Homo sapiens, UniProt P05181); type: in vitro ADME; conditions: microsomes of HEK293 cells overexpressing CYP2E1
# Sequence of CYP2E1 (P05181 whole entry): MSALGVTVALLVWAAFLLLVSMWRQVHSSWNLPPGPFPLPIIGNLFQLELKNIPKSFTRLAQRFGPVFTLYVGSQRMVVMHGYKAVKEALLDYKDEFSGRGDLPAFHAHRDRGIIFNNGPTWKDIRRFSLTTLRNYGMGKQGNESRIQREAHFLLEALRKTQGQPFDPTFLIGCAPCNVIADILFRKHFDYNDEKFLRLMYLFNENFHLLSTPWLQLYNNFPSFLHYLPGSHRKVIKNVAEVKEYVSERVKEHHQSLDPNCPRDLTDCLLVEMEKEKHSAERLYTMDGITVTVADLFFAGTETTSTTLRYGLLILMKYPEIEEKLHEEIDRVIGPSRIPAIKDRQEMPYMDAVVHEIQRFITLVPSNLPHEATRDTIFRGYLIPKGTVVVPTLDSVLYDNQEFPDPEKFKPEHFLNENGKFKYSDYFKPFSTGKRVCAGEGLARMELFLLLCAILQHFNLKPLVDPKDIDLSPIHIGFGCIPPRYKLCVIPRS
# [7] = Kinetic analysis of COX formation in pooled HLMs; type: in vitro ADME, human; conditions: pooled HLMs from 20 individuals
# [8] = ref Jarvis et al., 1988; cited from earlier work
# [9] = system: P450; conditions: rat, in vivo; cited from earlier work
# [10] = system: CYP2B6; conditions: formation of COT from nicotine, ref Yamanaka et al., 2005; cited from earlier work
# [11] = in smokers; no reference given; cited from earlier work
# [12] = system: CYP2A6; conditions: formation of COT from nicotine, ref Yamanaka et al., 2005; cited from earlier work
compound,measurement,setting,value
N[C@@H]1C[C@H]1c1ccccc1 (racemic) [tranylcypromine],decrease in COX formation,[1]; 1 µM inhibitor,15%
O=C1CCC(c2cccnc2)N1CO (stereo not shown) [N-(hydroxyl-methyl) norcotinine],average share of cotinine metabolites in urine,[2],4%
COC(=O)[C@H](c1ccccc1Cl)N1CCc2sccc2C1 [clopidogrel],decrease in COX formation,[1]; 10 µM inhibitor,21%
same,increased enzyme efficacy,[3],35%–40%
CN1C(=O)CC[C@H]1c1cccnc1 [cotinine],Km at 30 min,[4],> 10000 µM
same,Km at 30 min,[5],810 ± 24 µM
same,Km at 30 min,[6],> 10000 µM
same,Km,[7]; COX formation from cotinine,550 ± 49 µM
same,Vmax,[7]; COX formation,587 ± 26 pmol/min/mg
same,half-life of elimination from plasma,[8],10 to 27 h
CC(C)(C(=O)c1cccnc1)c1cccnc1 [metyrapone],effect on phenobarbital-induced increase of COX production,[9],negated
CN1CCC[C@H]1c1cccnc1 [nicotine],Km,[10],550 µM
same,share of metabolism via formation of cotinine by CYP2A6,[11],~70%
same,Km,[12],95 µM
COc1ccc2[nH]c([S+]([O-])Cc3ncc(C)c(OC)c3C)nc2c1 (stereo not shown) [omeprazole],increased enzyme efficacy,[3],35%–40%
CCC1(c2ccccc2)C(=O)NC(=O)NC1=O [phenobarbital],increase of COX production,[9],eightfold
